Data published in patent US10851073B2, “Protein tyrosine phosphatase inhibitors and methods of use thereof” (Calico Life Sciences LLC, priority 2019, dated 2020).

Tests used:
[1] = biological target: T1, His tagged PTPN2 (TC45) protein (Homo sapiens, UniProt P17706); assay: Mobility shift assay used to determine potency of PTPN2 inhibitors; assay type: biochemical; conditions: enzyme 0.5 nM, substrate 2 μM; read-out: PTPN2 MSA IC50
T1 construct: made in house
T1 sequence (P17706 with tags, fused parts or gaps isoform P17706-2): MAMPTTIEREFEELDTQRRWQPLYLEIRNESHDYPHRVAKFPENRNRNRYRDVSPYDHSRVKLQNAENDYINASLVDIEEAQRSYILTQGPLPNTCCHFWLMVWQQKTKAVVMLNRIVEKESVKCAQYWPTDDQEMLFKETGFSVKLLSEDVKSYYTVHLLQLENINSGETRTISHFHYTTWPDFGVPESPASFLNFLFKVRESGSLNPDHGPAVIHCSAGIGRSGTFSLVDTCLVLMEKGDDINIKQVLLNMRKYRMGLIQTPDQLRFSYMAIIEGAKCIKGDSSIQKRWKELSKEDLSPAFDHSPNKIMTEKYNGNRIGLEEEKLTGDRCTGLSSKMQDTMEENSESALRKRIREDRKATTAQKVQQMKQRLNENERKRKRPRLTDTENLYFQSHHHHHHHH
How it was run: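 Enzyme (0.5 nM) preincubated with compound (12-point, 1:3 dilution) 10 min at room temperature in 50 mM HEPES pH 7.5, 1 mM EGTA, 10 mM EDTA, 0.01% Tween 20, 2 mM DTT; OG488-labelled phospho-insulin-receptor peptide substrate (2 μM) added for 10 min, then quenched. Microfluidic mobility shift (ex 488/em 530 nm) gave % conversion; IC50 from % inhibition.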

[2] = biological target: T2, His tagged full-length PTPN1 protein (Homo sapiens, UniProt P18031); assay: Mobility shift assay (MSA) used to determine potency of PTPN1 inhibitors; assay type: biochemical; conditions: enzyme 0.5 nM, substrate 2 μM
T2 construct: made in house
T2 sequence (P18031 with tags, fused parts or gaps): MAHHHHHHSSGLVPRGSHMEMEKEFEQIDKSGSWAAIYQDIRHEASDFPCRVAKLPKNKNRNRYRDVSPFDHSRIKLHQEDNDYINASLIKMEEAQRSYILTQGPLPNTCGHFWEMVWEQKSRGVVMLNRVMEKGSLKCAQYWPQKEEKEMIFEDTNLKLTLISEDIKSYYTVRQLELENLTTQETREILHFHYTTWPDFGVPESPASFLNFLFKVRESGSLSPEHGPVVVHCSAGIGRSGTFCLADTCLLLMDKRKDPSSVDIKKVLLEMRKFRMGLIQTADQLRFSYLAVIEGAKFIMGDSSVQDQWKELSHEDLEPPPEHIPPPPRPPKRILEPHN
How it was run: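 Full-length His-tagged human PTPN1 (0.5 nM) was preincubated 10 min at room temperature with compound (12-point, 1:3 dilution) in HEPES pH 7.5 buffer with EGTA, EDTA, Tween 20 and DTT. A 2 μM fluorescent phospho-insulin receptor peptide was then added for 10 min before quench. Mobility-shift % conversion gave % inhibition and IC50.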

[3] = system: B16F10 mouse melanoma cells; assay: B16F10 IFNγ-induced cellular growth inhibition assay; assay type: cell-based; conditions: B16-F10, with 0.5 ng/mL IFNγ, read-out: B16F10 GI IC50
How it was run: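 B16F10 cells grown in DMEM+10% FBS, with or without 0.5 ng/mL final mouse IFNγ, and dosed in triplicate at 100 μM to 0.001 μM final (0.1% DMSO). Confluence imaged every 6 h for 5 days; percent growth inhibition versus DMSO/with-IFNγ control taken once DMSO/no-IFNγ wells exceeded 95% confluence, giving IC50.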

| IC50 [2] [nM] | IC50 [3] [nM] | SMILES | IC50 [1] [nM] |
| --- | --- | --- | --- |
| 1 to 10 | < 1000 | CC(C)(C)CCNC1CCc2cc(O)c(N3CC(=O)NS3(=O)=O)c(F)c2C1 (stereo not drawn) [Compound 174, 5-{7-[(3,3-dimethylbutyl)amino]-1-fluoro-3-hydroxy-5,6,7,8-tetrahydronaphthalen-2-yl}-1λ^6,2,5-thiadiazolidine-1,1,3-trione] | 1 to 10 |
| 1 to 10 | < 1000 | O=C1CN(c2c(O)cc3c(c2F)CC(NCCC2CCCC2)CC3)S(=O)(=O)N1 (stereo not drawn) [Compound 178, 5-{7-[(2-cyclopentylethyl)amino]-1-fluoro-3-hydroxy-5,6,7,8-tetrahydronaphthalen-2-yl}-1λ^6,2,5-thiadiazolidine-1,1,3-trione] | < 1 |
| > 100 | 1000 to 10000 | O=C1CN(c2c(O)cc3c(c2F)CC(NCCO)CC3)S(=O)(=O)N1 (stereo not drawn) [Compound 180, 5-{1-fluoro-3-hydroxy-7-[(2-hydroxyethyl)amino]-5,6,7,8-tetrahydronaphthalen-2-yl}-1λ^6,2,5-thiadiazolidine-1,1,3-trione] | 10 to 100 |
| 1 to 10 | < 1000 | O=C1CN(c2c(O)cc3c(c2F)CC(NCCC2CCC2)CC3)S(=O)(=O)N1 (stereo not drawn) [Compound 185, 5-{7-[(2-cyclobutylethyl)amino]-1-fluoro-3-hydroxy-5,6,7,8-tetrahydronaphthalen-2-yl}-1λ^6,2,5-thiadiazolidine-1,1,3-trione] | 1 to 10 |
| 1 to 10 | < 1000 | CC(C)C(O)CNC1CCc2cc(O)c(N3CC(=O)NS3(=O)=O)c(F)c2C1 (stereo not drawn) [Compound 187, 5-{1-fluoro-3-hydroxy-7-[(2-hydroxy-3-methylbutyl)amino]-5,6,7,8-tetrahydronaphthalen-2-yl}-1λ^6,2,5-thiadiazolidine-1,1,3-trione] | 1 to 10 |
| 10 to 100 | < 1000 | O=C1CN(c2c(O)cc3c(c2F)CC(NCC(O)C2CC2)CC3)S(=O)(=O)N1 (stereo not drawn) [Compound 188, 5-{7-[(2-cyclopropyl-2-hydroxyethyl)amino]-1-fluoro-3-hydroxy-5,6,7,8-tetrahydronaphthalen-2-yl}-1λ^6,2,5-thiadiazolidine-1,1,3-trione] | 10 to 100 |
| 1 to 10 | < 1000 | CCC(C)CCN[C@@H]1CCc2cc(O)c(N3CC(=O)NS3(=O)=O)c(F)c2C1 (stereo partly drawn) [Compound 203, 5-{(7R)-1-fluoro-3-hydroxy-7-[(3-methylpentyl)amino]-5,6,7,8-tetrahydronaphthalen-2-yl}-1λ^6,2,5-thiadiazolidine-1,1,3-trione] | < 1 |

| SMILES | IC50 [2] [nM] | IC50 [3] [nM] | IC50 [1] [nM] |
| --- | --- | --- | --- |
| CCCCNC1CCc2cc(O)c(N3CC(=O)NS3(=O)=O)c(F)c2C1 (stereo not drawn) [Compound 175, 5-[7-(butylamino)-1-fluoro-3-hydroxy-5,6,7,8-tetrahydronaphthalen-2-yl]-1λ^6,2,5-thiadiazolidine-1,1,3-trione] | 10 to 100 | < 1000 | 1 to 10 |
| C[Si](C)(C)CCCNC1CCc2cc(O)c(N3CC(=O)NS3(=O)=O)c(F)c2C1 (stereo not drawn) [Compound 189, 5-(1-fluoro-3-hydroxy-7-{[3-(trimethylsilyl)propyl]amino}-5,6,7,8-tetrahydronaphthalen-2-yl)-1λ^6,2,5-thiadiazolidine-1,1,3-trione] | > 100 | 1000 to 10000 | 1 to 10 |
| C[Si](C)(O)CCCNC1CCc2cc(O)c(N3CC(=O)NS3(=O)=O)c(F)c2C1 (stereo not drawn) [Compound 190, 5-[1-fluoro-3-hydroxy-7-({3-[hydroxy(dimethyl)silyl]propyl}amino)-5,6,7,8-tetrahydronaphthalen-2-yl]-1λ^6,2,5-thiadiazolidine-1,1,3-trione] | 10 to 100 | 1000 to 10000 | 1 to 10 |
| CC(C)(O)CCOC1CCc2cc(O)c(N3CC(=O)NS3(=O)=O)c(F)c2C1 (stereo not drawn) [Compound 197, 5-[1-fluoro-3-hydroxy-7-(3-hydroxy-3-methylbutoxy)-5,6,7,8-tetrahydronaphthalen-2-yl]-1λ^6,2,5-thiadiazolidine-1,1,3-trione] | 10 to 100 | 1000 to 10000 | 10 to 100 |
